According to paper PMC12954580, “Multivalent glycoligands with lectin/enzyme dual specificity: self-deliverable glycosidase regulators” (Chemical Communications (Cambridge, England), 2019):

Assays:
concanavalin A (ConA) = target: T1, concanavalin A (ConA) (Canavalia ensiformis, UniProt P02866); test: Enzyme-linked lectin assay (ELLA), HRP-ConA/mannan binding inhibition; set-up: species or system Concanavalia einsiformis; conditions: Figure S19A, values printed over bars, axis log [IC50, M]
T1 construct: purchased
Experimental: The absorbance of the resulting mixture was determined at 405 nm.

[1] = target: T2, recombinant human MMR (macrophage mannose receptor) (Homo sapiens, UniProt P22897); test: Modified ELLA: inhibition of rhMMR binding to yeast mannan; conditions: mean of three independent experiments ± SD
T2 sequence (P22897 19-1456): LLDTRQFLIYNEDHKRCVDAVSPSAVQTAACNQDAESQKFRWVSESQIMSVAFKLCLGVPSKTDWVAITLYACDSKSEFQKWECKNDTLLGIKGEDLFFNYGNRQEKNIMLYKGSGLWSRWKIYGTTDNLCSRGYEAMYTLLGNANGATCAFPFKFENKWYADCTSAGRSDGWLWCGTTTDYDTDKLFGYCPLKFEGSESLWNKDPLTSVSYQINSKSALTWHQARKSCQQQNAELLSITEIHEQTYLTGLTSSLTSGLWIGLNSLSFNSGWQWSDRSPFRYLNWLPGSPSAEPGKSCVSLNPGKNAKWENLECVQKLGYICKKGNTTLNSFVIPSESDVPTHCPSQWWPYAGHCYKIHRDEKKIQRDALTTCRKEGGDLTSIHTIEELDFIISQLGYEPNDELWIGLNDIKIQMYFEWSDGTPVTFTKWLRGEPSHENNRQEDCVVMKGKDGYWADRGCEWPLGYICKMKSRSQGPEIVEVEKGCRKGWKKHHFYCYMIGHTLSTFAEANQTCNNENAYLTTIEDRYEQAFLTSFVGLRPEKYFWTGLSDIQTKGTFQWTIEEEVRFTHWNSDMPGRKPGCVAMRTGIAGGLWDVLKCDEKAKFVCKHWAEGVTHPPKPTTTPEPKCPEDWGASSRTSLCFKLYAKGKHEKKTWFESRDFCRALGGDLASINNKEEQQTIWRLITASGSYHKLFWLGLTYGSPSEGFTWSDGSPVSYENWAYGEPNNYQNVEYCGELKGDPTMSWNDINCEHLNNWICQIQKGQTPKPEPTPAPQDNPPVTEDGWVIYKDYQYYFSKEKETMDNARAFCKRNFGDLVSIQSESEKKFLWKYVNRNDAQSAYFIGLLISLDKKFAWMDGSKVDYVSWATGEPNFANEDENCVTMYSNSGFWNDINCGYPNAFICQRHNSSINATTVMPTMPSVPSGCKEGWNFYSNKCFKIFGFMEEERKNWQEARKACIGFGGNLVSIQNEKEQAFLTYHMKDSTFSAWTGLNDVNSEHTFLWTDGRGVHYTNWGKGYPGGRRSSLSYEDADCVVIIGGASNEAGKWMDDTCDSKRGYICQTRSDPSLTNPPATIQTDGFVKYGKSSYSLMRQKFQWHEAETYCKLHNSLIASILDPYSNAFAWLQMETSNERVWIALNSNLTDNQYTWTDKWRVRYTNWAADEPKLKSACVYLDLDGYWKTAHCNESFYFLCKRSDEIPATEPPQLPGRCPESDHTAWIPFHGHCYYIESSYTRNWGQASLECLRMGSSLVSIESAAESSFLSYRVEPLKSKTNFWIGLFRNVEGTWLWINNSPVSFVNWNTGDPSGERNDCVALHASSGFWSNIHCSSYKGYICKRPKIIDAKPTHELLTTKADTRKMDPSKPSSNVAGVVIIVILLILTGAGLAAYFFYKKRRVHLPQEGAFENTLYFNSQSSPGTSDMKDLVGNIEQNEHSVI
Experimental: conjugates 3-8 the above protocol was repeated using in the last incubation step a solution of the desired HRP-ConA lectin concentration (50 µL per well) that contained inhibitors targeting the glycone, glycone/aglycone and surface sites (9-13; 500 µM; Figure S21B). Control […]
in the absence of the enzyme.
Determination of recombinant human MMR (rhMMR) binding affinities . The wells of mannan-coated microplates, prepared as above described, were filled with 100 μL of serial dilutions of rhMMR from a 10 µg·mL-1 stock solution in PBS (pH 7.3 containing 0.1 mM Ca2+ and 0.1 mM Mn2+), and incubated at 37 °C for 1 h. The plates were washed three times with PBST as described above and 100 µL of a solution of biotinylated anti -human MMR antibody (0.2 µg·mL_1, R&D Systems) in PBS was added in each well, and the plates were further incubated for 1 h at 37 °C.
The complex NeutrAvidin-biotinylated HRP was preformed separately by successively adding to Tris buffer (9.6 mL, 50 mM, pH 7.6) a solution of NeutrAvidin (100 µg·mL-1 in Tris buffer, 1.2 mL, Thermo Scientific) and a solution of biotin-conjugated HRP (25 µg·mL-1 in Tris buffer, 1.2 mL, Thermo Scientific). […] After 5 min at RT, the optical density was measured at 415 nm. […]
inhibition experiments. […] Optical density at 415 nm was determined after 5 min. The percent of inhibition was calculated as above indicated for a typical ELLA experiment.

[2] = target: T3, α-mannosidase (jack beans) (Canavalia ensiformis, UniProt C0HJB3); test: Enzymatic stability / substrate behaviour towards glycosidases (gas chromatography); format: biochemical; conditions: control experiment
T3 construct: purchased; host or cells: jack beans
T3 sequence (C0HJB3 1-981): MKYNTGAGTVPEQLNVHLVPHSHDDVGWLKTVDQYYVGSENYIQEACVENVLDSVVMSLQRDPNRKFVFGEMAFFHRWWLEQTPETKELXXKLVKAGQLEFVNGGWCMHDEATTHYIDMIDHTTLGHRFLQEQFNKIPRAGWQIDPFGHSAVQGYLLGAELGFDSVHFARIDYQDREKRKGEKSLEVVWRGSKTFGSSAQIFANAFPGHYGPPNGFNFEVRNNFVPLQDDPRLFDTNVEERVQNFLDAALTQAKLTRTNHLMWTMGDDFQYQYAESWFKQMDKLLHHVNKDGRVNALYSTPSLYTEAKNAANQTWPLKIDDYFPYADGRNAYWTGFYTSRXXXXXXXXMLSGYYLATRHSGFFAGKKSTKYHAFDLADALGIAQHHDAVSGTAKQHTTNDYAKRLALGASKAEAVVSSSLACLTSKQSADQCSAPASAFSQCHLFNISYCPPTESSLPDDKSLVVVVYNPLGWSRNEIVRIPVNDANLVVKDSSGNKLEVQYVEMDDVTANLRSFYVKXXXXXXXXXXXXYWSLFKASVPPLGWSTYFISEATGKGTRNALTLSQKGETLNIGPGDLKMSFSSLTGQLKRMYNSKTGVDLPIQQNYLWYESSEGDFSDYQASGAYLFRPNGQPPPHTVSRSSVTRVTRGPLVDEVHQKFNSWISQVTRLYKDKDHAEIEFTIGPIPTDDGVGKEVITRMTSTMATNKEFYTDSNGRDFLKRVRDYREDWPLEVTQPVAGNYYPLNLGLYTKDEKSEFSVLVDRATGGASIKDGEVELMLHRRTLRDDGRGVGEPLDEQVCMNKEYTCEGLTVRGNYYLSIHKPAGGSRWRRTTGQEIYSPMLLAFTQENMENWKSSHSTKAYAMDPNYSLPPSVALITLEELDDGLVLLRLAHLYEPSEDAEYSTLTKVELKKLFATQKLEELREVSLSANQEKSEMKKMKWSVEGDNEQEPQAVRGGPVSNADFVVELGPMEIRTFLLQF
Excerpt: Preliminary evidence on the feasibility of achieving disparate glycosidase inhibition selectivity with the multivalent glycoclusters 3–8 and, at the same time, retaining intrinsic lectin binding properties was achieved by conducting control experiments using both commercial glycosidases and lectins. The glycosidase panel included α- and β-glucosidases (S. cerevisiae and bovine liver), α- and β-galactosidases (green coffee beans and E. coli) and α- and β-mannosidases (jack beans and H. pomatia). Prior to kinetic determination of the corresponding inhibition constant (Ki) values (Table S1 and Fig. S9–S18, ESI ^†), the enzymatic stability was investigated by gas chromatography. […] In all the other cases the α-mannopyranoside linkages remained stable, meaning that any effect observed in the enzyme activity should be ascribed to an inhibitor and not to a substrate behavior.

## CO[C@H]1O[C@H](CO)[C@@H](O)[C@H](O)[C@@H]1O [MeMan, methyl α-D-mannopyranoside]
Concanavalin A (ConA)
  IC50: 800 µM

## Man9
[1]
  IC50: 3.9 ± 0.5 µM
[2]
  Substrate behaviour towards GH38 jack bean Manase: substrates
